Measured values published in patent publication US10087191B2, “Piperidine derivative and preparation method and pharmaceutical use thereof” (Jiangsu Hengrui Medicine Co., Ltd., priority 2015, dated 2018).

Tests used:
MCF7 cells = experiment: Inhibition of the proliferation of MCF7 cells (Cell Titer-Glo); format: cell-based; conditions: Homo sapiens, MCF-7 cells, 72 hours, read-out: IC50 value of inhibition effect on the proliferation of MCF7 cells
Experimental: The object of this experiment was to determine the inhibition effect of the compounds on the proliferation activity of MCF7 cells, and the in vitro activity of the compounds was evaluated according to the IC50 value.
After incubation for 24 hours, the medium was removed, then 90 μl of the medium containing 2% FBS and 10 μl of the drug were added to each well, 10 μl of DMSO were added to the control group, and the blank group contained only 100 μl medium containing 2% FBS. The plate was gently shaken and incubated in a incubator at 37° C., 5% CO2. After 72 hours, 50 μl of mixed Cell Titer-Glo (Promega, Cat. No. G7571) were added to each well. The plate was shaken until the ingredients were well mixed, and placed at room temperature for 10 minutes, then the chemiluminescence signal value was determined.
The values of the chemiluminescence signals vs the logarithmic concentrations of the compounds were plotted using Graghpad Prism to obtain IC50 values.

[1] = Pharmacokinetics assay in BALB/C nude mice after intragastrical administration; format: in vivo; conditions: female, mouse, plasma, po, 3 mg/kg; for AUC: read-out: Area Under Curve AUC; for CL/F: read-out: Clearance CL/F (converted); for half-life: read-out: Half-Life t½ (converted); for MRT: read-out: Mean Residence Time MRT; for Cmax: read-out: Plasma Conc. Cmax
Experimental: BALB/C nude mice were used as test animals. The drug concentration in plasma at different time points was determined by LC/MS/MS after intragastrical administration of the compounds of Examples 10, 14, 20, 21, 57, 68, 71, 73, 74, 76 and 89 to BALB/C nude mice. The pharmacokinetic behavior of the compounds of the present invention was studied and evaluated in BALB/C nude mice.
Ninety-nine (99) female BALB/C nude mice were equally divided into 11 groups, which were purchased from SINO-BRITSH SIPPR/BK LAB. ANIMAL LTD., CO, with Certificate No.: SCXK (Shanghai) 2008-0016.
The appropriate amount of each test compound was weighed, and successively added with 9% PEG400+0.5% tween 80+0.5% PVP+90% aqueous solution of 0.5% CMC.
After an overnight fast, 99 female BALB/C nude mice were equally divided into 11 groups, and administered the test compounds intragastrically at an administration volume of 0.2 mL/10 g.
Blood (0.1 mL) was sampled (3 mice at each time point) at 0.5, 1.0, 2.0, 4.0, 6.0, 8.0, 11.0 and 24.0 hours after administration. The samples were stored in heparinized test tubes, and centrifuged for 10 minutes at 3,500 rpm to separate the blood plasma. The plasma samples were stored at −20° C. The plasma concentration of the test compounds in BALB/C nude mice after intragastrical administration was determined by LC/MS/MS.
Pharmacokinetic parameters of the compounds of Examples 10, 14, 20, 21, 57, 68, 71, 73, 74, 76 and 89 of the present invention are shown below.

Compound	IC50 (MCF7 cells) [nM]	further results
CC1Cc2c(oc3ccc(Br)cc23)C(c2c(F)cc(/C=C/C(=O)O)cc2F)N1CC(C)(C)F [Example 87, (E)-3-(4-((1R,3R/1S,3S)-6-bromo-2-(2-fluoro-2-methylpropyl)-3-methyl-1,2,3,4-tetrahydrobenzofuro[2,3-c]pyridin-1-yl)-3,5-difluorophenyl)acrylic acid]	9.27	
CC1Cc2cc(-c3nnn(C)n3)ccc2C(c2c(F)cc(/C=C/C(=O)O)cc2F)N1CC(C)(C)F [Example 51, (E)-3-(3,5-difluoro-4-((1S,3R/1R,3S)-2-(2-fluoro-2-methylpropyl)-3-methyl-6-(2-methyl-2H-tetrazol-5-yl)-1,2,3,4-tetrahydroisoquinolin-1-yl)phenyl)acrylic acid]	3.07	
CCn1cc(-c2ccc3c(c2)C[C@@H](C)N(CC(C)(C)F)[C@@H]3c2c(F)cc(/C=C/C(=O)O)cc2F)cn1 [Example 21, (E)-3-(4-((1S,3R)-6-(1-ethyl-1H-pyrazol-4-yl)-2-(2-fluoro-2-methylpropyl)-3-methyl-1,2,3,4-tetrahydroisoquinolin-1-yl)-3,5-difluorophenyl)acrylic acid]	0.11	AUC [1]: 10100 ng·h/mL; CL/F [1]: 82.7 mL/min/kg; half-life [1]: 2.52 h; MRT [1]: 2.71 h; Cmax [1]: 4300 ng/mL
CC1Cc2c(oc3ccc(-c4cccnc4)cc23)C(c2c(F)cc(/C=C/C(=O)O)cc2F)N1CC(C)(C)F [Example 90, (E)-3-(3,5-difluoro-4-((1R,3R/1S,3S)-2-(2-fluoro-2-methylpropyl)-3-methyl-6-(pyridin-3-yl)-1,2,3,4-tetrahydrobenzofuro[2,3-c]pyridin-1-yl)phenyl)acrylic acid]	0.21	
CC(C)CN1C(C)Cc2c(ccc3[nH]ncc23)C1c1c(F)cc(/C=C/C(=O)O)cc1F [Example 92, (E)-3-(3,5-difluoro-4-((6S,8R/6R,8S)-7-isobutyl-8-methyl-6,7,8,9-tetrahydro-3H-pyrazolo[4,3-f]isoquinolin-6-yl)phenyl)acrylic acid]	0.99	
Cc1ncc(-c2ccc3c(c2)CC(C)N(CC(C)(C)F)C3c2c(F)cc(/C=C/C(=O)O)cc2F)s1 [Example 10, (E)-3-(3,5-difluoro-4-((1S,3R/1R,3S)-2-(2-fluoro-2-methylpropyl)-3-methyl-6-(2-methylthiazol-5-yl)-1,2,3,4-tetrahydroisoquinolin-1-yl)phenyl)acrylic acid]	0.49	AUC [1]: 15400 ng·h/mL; CL/F [1]: 54 mL/min/kg; half-life [1]: 4.11 h; MRT [1]: 5.72 h; Cmax [1]: 2600 ng/mL
CC1Cc2c(oc3c(F)cccc23)C(c2c(F)cc(/C=C/C(=O)O)cc2F)N1CC(C)(C)F [Example 84, (E)-3-(3,5-difluoro-4-((1R,3R/1S,3S)-8-fluoro-2-(2-fluoro-2-methylpropyl)-3-methyl-1,2,3,4-tetrahydrobenzofuro[2,3-c]pyridin-1-yl)phenyl)acrylic acid]	4.21	
Cc1noc(-c2ccc3c(c2)CC(C)N(CC(C)(C)F)C3c2c(F)cc(/C=C/C(=O)O)cc2F)n1 [Example 53, (E)-3-(3,5-difluoro-4-((1S,3R/1R,3S)-2-(2-fluoro-2-methylpropyl)-3-methyl-6-(3-methyl-1,2,4-oxadiazol-5-yl)-1,2,3,4-tetrahydroisoquinolin-1-yl)phenyl)acrylic acid]	15	
CCn1cc(-c2ccc3c(c2)CC(C)N(CC(C)(C)F)C3c2c(F)cc(/C=C/C(=O)O)cc2F)cn1 [Example 20, (E)-3-(4-((1S,3R/1R,3S)-6-(1-ethyl-1H-pyrazol-4-yl)-2-(2-fluoro-2-methylpropyl)-3-methyl-1,2,3,4-tetrahydroisoquinolin-1-yl)-3,5-difluorophenyl)acrylic acid]	0.03	AUC [1]: 13000 ng·h/mL; CL/F [1]: 63.8 mL/min/kg; half-life [1]: 3.27 h; MRT [1]: 4.07 h; Cmax [1]: 3290 ng/mL
CC1Cc2cc(NC(=O)N(C)C)ccc2C(c2c(F)cc(/C=C/C(=O)O)cc2F)N1CC(C)(C)F [Example 44, (E)-3-(4-((1S,3R/1R,3S)-6-(3,3-dimethylureido)-2-(2-fluoro-2-methylpropyl)-3-methyl-1,2,3,4-tetrahydroisoquinolin-1-yl)-3,5-difluorophenyl)acrylic acid]	1.59	
CCc1nc(-c2ccc3c(c2)CC(C)N(CC(C)(C)F)C3c2c(F)cc(/C=C/C(=O)O)cc2F)no1 [Example 46, (E)-3-(4-((1S,3R/1R,3S)-6-(5-ethyl-1,2,4-oxadiazol-3-yl)-2-(2-fluoro-2-methylpropyl)-3-methyl-1,2,3,4-tetrahydroisoquinolin-1-yl)-3,5-difluorophenyl)acrylic acid]	3.66	
CCn1cc(-c2ccc3c(c2)C[C@H](C)N(CC(C)(C)F)[C@H]3c2c(F)cc(/C=C/C(=O)O)cc2F)cn1 [Example 22, (E)-3-(4-((1R,3S)-6-(1-ethyl-1H-pyrazol-4-yl)-2-(2-fluoro-2-methylpropyl)-3-methyl-1,2,3,4-tetrahydroisoquinolin-1-yl)-3,5-difluorophenyl)acrylic acid]	17.4	
CC1Cc2cc(-c3ccc(-c4cnn(C)c4)nc3)ccc2C(c2c(F)cc(/C=C/C(=O)O)cc2F)N1CC(C)(C)F [Example 61, (E)-3-(3,5-difluoro-4-((1S,3R/1R,3S)-2-(2-fluoro-2-methylpropyl)-3-methyl-6-(6-(1-methyl-1H-pyrazol-4-yl)pyridin-3-yl)-1,2,3,4-tetrahydroisoquinolin-1-yl)phenyl)acrylic acid]	3.58	
Cc1ncc(-c2ccc3c(c2)C[C@@H](C)N(CC(C)(C)F)[C@@H]3c2c(F)cc(/C=C/C(=O)O)cc2F)s1 [Example 11, (E)-3-(3,5-difluoro-4-((1S,3R)-2-(2-fluoro-2-methylpropyl)-3-methyl-6-(2-methylthiazol-5-yl)-1,2,3,4-tetrahydroisoquinolin-1-yl)phenyl)acrylic acid]	0.08	
C[C@@H]1Cc2cc(-c3cn[nH]c3)ccc2[C@@H](c2c(F)cc(/C=C/C(=O)O)cc2F)N1CC(C)(C)F [Example 25, (E)-3-(3,5-difluoro-4-((1S,3R)-2-(2-fluoro-2-methylpropyl)-3-methyl-6-(1H-pyrazol-4-yl)-1,2,3,4-tetrahydroisoquinolin-1-yl)phenyl)acrylic acid]	0.22	
C[C@H]1Cc2cc(-c3cnn(C)c3)ccc2[C@H](c2c(F)cc(/C=C/C(=O)O)cc2F)N1CC(C)(C)F [Example 56, (E)-3-(3,5-difluoro-4-((1R,3S)-2-(2-fluoro-2-methylpropyl)-3-methyl-6-(1-methyl-1H-pyrazol-4-yl)-1,2,3,4-tetrahydroisoquinolin-1-yl)phenyl)acrylic acid]	0.01	
CC1Cc2cc(-c3cccnc3)ccc2C(c2c(F)cc(/C=C/C(=O)O)cc2F)N1CC(C)(C)F [Example 28, (E)-3-(3,5-difluoro-4-((1S,3R/1R,3S)-2-(2-fluoro-2-methylpropyl)-3-methyl-6-(pyridin-3-yl)-1,2,3,4-tetrahydroisoquinolin-1-yl)phenyl)acrylic acid]	3.71	
CNC(=O)Nc1ccc2c(c1)CC(C)N(CC(C)(C)F)C2c1c(F)cc(/C=C/C(=O)O)cc1F [Example 29, (E)-3-(3,5-difluoro-4-((1S,3R/1R,3S)-2-(2-fluoro-2-methylpropyl)-3-methyl-6-(3-methylureido)-1,2,3,4-tetrahydroisoquinolin-1-yl)phenyl)acrylic acid]	4.82	
CC1Cc2cc(O)ccc2C(c2c(F)cc(/C=C/C(=O)O)cc2F)N1CC(C)(C)F [Example 3, (E)-3-(3,5-difluoro-4-((1S,3R/1R,3S)-2-(2-fluoro-2-methylpropyl)-6-hydroxy-3-methyl-1,2,3,4-tetrahydroisoquinolin-1-yl)phenyl)acrylic acid]	2.12	
